Source: patent publication US20230128889A1, “REL/RELA/SPOT SMALL MOLECULES MODULATORS AND SCREENING METHODS” (priority 2020, published 2023)

Key:
Rel synthetase (ST) = assay: Inhibition of Rel synthetase activity: (p)ppGpp production from GDP or GTP and radioactive ATP, TLC; type: biochemical; details: enzyme with GDP or GTP and radioactive ATP, absence or presence of compound
Procedure: (§1) As indicated above, the “Yes/No” in the 5th and 6th columns of TABLES A to F indicates whether there is, or respectively is not an inhibition of the synthetase (ST) and/or hydrolase (HD) activity. […] The action of a candidate compound is evaluated based on its effect on the production of (p)ppGpp. Therefore, in order to assess the potential influence of a candidate compound on synthesis activity, the enzyme was mixed with GDP or GTP and radioactive ATP to produce (p)ppGpp in absence or presence of the candidate compound. Subsequently, the reaction is developed by thin layer chromatography (TLC). In an alternative assay that enables determining the effect of a compound on the hydrolysis activity, radioactive (p)ppGpp is incubated with the enzyme and any decrease of the (p)ppGpp spot on TLC is evaluated when the assay is conducted in presence of the compound and compared to control conditions where no candidate compound is added during incubation.

Rel hydrolase (HD) = assay: Inhibition of Rel hydrolase activity: decrease of radioactive (p)ppGpp spot on TLC; type: biochemical; details: radioactive (p)ppGpp incubated with enzyme, with vs without compound
Procedure: as §1

SMILES | ST (inhibition of the synthetase activity) (Rel synthetase (ST)) | HD (inhibition of the hydrolase activity) (Rel hydrolase (HD))
Cc1cc(C(=O)N2CCN(c3ncccn3)CC2)c(N)c([N+](=O)[O-])c1 [Compound 63] | No | Yes
O=C(COc1ccc2ccccc2c1)N1N=C2/C(=C/c3cccc([N+](=O)[O-])c3)CCCC2C1c1cccc([N+](=O)[O-])c1 (stereo not shown) [Compound 8] | No | Yes
O=C(Nc1nnn[nH]1)c1ccc2c(Br)cccc2c1 [Compound 22] | Yes | Yes
O=c1oc2cc(OCc3nnn[nH]3)ccc2cc1-c1ccccc1 [Compound 13] | Yes | No
O=C(O)c1cc(NS(=O)(=O)c2ccc3c4c(cccc24)C(=O)N3)cnc1Cl [Compound 49] | Yes | Yes
Cc1cc(OCC(=O)O)c2c(C)c(Cc3ccccc3)c(=O)oc2c1 [Compound 11] | Yes | No
O=C(O)Cn1cc(/C=C2/C(=O)Nc3ccccc32)c2ccccc21 [Compound 40] | Yes | No
O=c1oc2cc(OCc3nnn[nH]3)ccc2cc1-c1ccc(F)cc1 [Compound 14] | Yes | No
Cc1c(Cc2ccccc2)c(=O)oc2cc(OCc3nnn[nH]3)ccc12 [Compound 18] | Yes | Yes
Cc1ccccc1-n1c(SCC(=O)NC(=O)c2cccc([N+](=O)[O-])c2)nnc1-c1ccncc1 [Compound 65] | No | Yes
Cc1c(C(=O)N(CCC(=O)O)CC2CCCO2)sc2ncn(C)c(=O)c12 (stereo not shown) [Compound 53] | No | Yes
COc1ccc2[nH]cc(CCNC(=O)c3nccnc3C(=O)O)c2c1 [Compound 29] | No | Yes
O=c1oc2cc(OCc3nnn[nH]3)ccc2cc1-c1ccc2ccccc2c1 [Compound 21] | Yes | Yes
O=C(c1cc(-c2cccc(Cl)c2)[nH]n1)N1CCc2ccc([N+](=O)[O-])cc21 [Compound 30] | No | Yes
Cn1c(=O)[nH]c(=O)c2[nH]c(SCC(=O)O)nc21 [Compound 52] | No | Yes
Cc1nnc2ccc(N3CCN(C(=O)Nc4ccccc4[N+](=O)[O-])CC3)nn12 [Compound 56] | No | Yes
O=[N+]([O-])c1ccc(CSc2nnc(-c3ccccc3F)o2)cc1 [Compound 62] | No | Yes
Cc1c(Cc2ccccc2)c(=O)oc2cc(OCc3ccc(C(=O)O)cc3)ccc12 [Compound 15] | Yes | No
O=C1Nc2ccccc2/C1=N/N=C/c1ccc(-c2ccccc2[N+](=O)[O-])o1 [Compound 41] | Yes | Yes
Cc1ccc(Nc2nc(N/N=C/c3cc(Cl)ccc3O)nc(Nc3ccc([N+](=O)[O-])cc3)n2)cc1C [Compound 66] | Yes | No
O=C1CCc2cc(-c3csc(NC(=O)c4cccc([N+](=O)[O-])c4)n3)ccc2N1 [Compound 7] | No | Yes
Cc1c(CC(=O)O)c(=O)oc2cc(O)cc(O)c12 [Compound 1] | No | Yes
COc1ccc(-c2cc3ccc(OCc4nnn[nH]4)cc3oc2=O)cc1 [Compound 12] | Yes | No
Cc1nc2cc(CC(=O)N[C@@H]3COCC[C@@H]3OCC(=O)O)ccc2[nH]1 [Compound 28] | No | Yes

SMILES | ST (inhibition of the synthetase activity) (Rel synthetase (ST)) | HD (inhibition of the hydrolase activity) (Rel hydrolase (HD))
O=C(O)/C=C/c1cccc(NC2C(=O)Nc3ccccc32)c1 (stereo not shown) [Compound 31] | No | Yes
O=C(O)CCCC(=O)Nc1cc2[nH]c(=O)[nH]c2cc1N1CCCC1 [Compound 35] | no | yes
Cc1c(Cc2ccccc2)c(=O)oc2cc(OCc3nnn[nH]3)c(Cl)cc12 [Compound 19] | Yes | Yes
Cc1cc(CCc2nnn[nH]2)c2c(C)c(Cc3ccccc3)c(=O)oc2c1 [Compound 17] | Yes | Yes
O=C(CC(C(=O)O)C1CCCO1)NCCc1ccc2c(c1)OCO2 (stereo not shown) [Compound 36] | no | yes
COc1ccc(C=C2C(=O)Nc3ccc(C(=O)O)cc32)cc1 [Compound 37] | Yes | No
O=[N+]([O-])c1cccc(CN2CCN(S(=O)(=O)c3ccc4ccccc4c3)CC2)c1 [Compound 5] | No | Yes
O=C(O)CCNS(=O)(=O)c1cc2c3c(cccc3c1)C(=O)NC2=O [Compound 51] | Yes | Yes
CCN(CC)C(=O)CN1CCN(c2ccc(NC(=O)Cc3ccc(C)cc3)c(C(=O)O)c2)CC1 [Compound 69] | Yes | Yes
Fc1cccc(-c2nnn(Cc3nnn[nH]3)n2)c1 [Compound 58] | No | Yes
O=C(O)CCNS(=O)(=O)c1ccc2[nH]c(=O)[nH]c2c1 [Compound 25] | No | Yes
O=C1Nc2ccccc2/C1=N\c1ccc(O)c([N+](=O)[O-])c1 [Compound 38] | Yes | No
Cc1nc(N)ncc1C(=O)NCc1cccc(-c2nnn[nH]2)c1 [Compound 59] | No | Yes
O=[N+]([O-])c1ccccc1OCCn1nnc(-c2ccccc2)n1 [Compound 60] | No | Yes
O=C(Nc1nnn[nH]1)c1cc(-c2ccc3c(c2)CCO3)[nH]n1 [Compound 32] | No | Yes
CCCCCCc1c(C)c2ccc(OCc3nnn[nH]3)cc2oc1=O [Compound 16] | Yes | Yes
O=C1N/C(=N\N=C\c2cccc3ccccc23)SC1Cc1ccccc1[N+](=O)[O-] (stereo not shown) [Compound 24] | Yes | Yes
O=C(O)CCC(=Cc1ccc(OCC(=O)O)cc1)c1nc2ccccc2s1 [Compound 44] | Yes | Yes
O=C(O)c1cccc(Nc2ncnc3[nH]cnc23)c1 [Compound 55] | No | Yes
CC(Nc1ccc(F)cc1[N+](=O)[O-])c1ccc2[nH]c(=O)[nH]c2c1 (stereo not shown) [Compound 26] | No | Yes
O=C(O)CC(CNC(=O)CCn1nnc2ccccc2c1=O)c1ccc(Cl)cc1 (stereo not shown) [Compound 4] | No | Yes
O=C(Nc1ccc(Cl)c([N+](=O)[O-])c1)c1ccc(-c2cccc(Cl)c2Cl)o1 [Compound 68] | Yes | Yes
O=C(O)CNS(=O)(=O)c1ccc2c3c(cccc13)C(=O)N2 [Compound 48] | Yes | Yes
